Assay results taken from patent US20060100431A1, “Biologically active compounds” (Amura Therapeutics Limited, priority 2002, published 2006).

Molecular target: T1, CPB2.8ΔCTE (Leishmania mexicana, UniProt P36400)
T1 construct: Wild-type recombinant CPB without the C-terminal extention (i.e. CPB2.8ΔCTE); Dr. Jeremy Mottram (Wellcome Centre for Molecular Parasitology, University of Glasgow)
Assay: Leishmania mexicana cysteine protease B (CPB) peptidase activity assay (Ki)
Type: biochemical
Conditions: Ki, inhibitors of Leismania mexicana CPB protease
Description: (§1) Unless otherwise stated, all general chemicals and biochemicals were purchased from either the Sigma Chemical Company, Poole, Dorset, U.K or from Fisher Scientific UK, Loughborough, Leicestershire, U.K. Absorbance assays were carried out in flat-bottomed 96-well plates (Spectra; Greiner Bio-One Ltd., Stonehouse, Gloucestershire, U.K.) using a SpectraMax PLUS384 plate reader (Molecular Devices, Crawley, U.K.). Fluorescence high throughput assays were carried out in either 384-well microtitre plates (Corning Costar 3705 plates, Fisher Scientific) or 96-well ‘U’ bottomed Microfluor W1 microtitre plates (Thermo Labsystems, Ashford, Middlesex, U.K.). Fluorescence assays were monitored using a SpectraMax Gemini fluorescence plate reader (Molecular Devices). For substrates employing either a 7-amino-4-methylcoumarin (AMC) or a 7-amino-4-trifluoromethylcoumarin (AFC) fluorophore, assays were monitored at an excitation wavelength of 365 nm and an emission wavelength of 450 nm and the fluorescence plate reader calibrated with AMC. For substrates employing a 3-amino-benzoyl (Abz) fluorophore, assays were monitored at an excitation wavelength of 310 nm and an emission wavelength of 445 nm; the fluorescence plate reader calibrated with 3-amino-benzamide (Fluka). Unless otherwise indicated, all the peptidase substrates were purchased from Bachem UK, St Helens, Merseyside, UK. Substrates utilizing fluorescence resonance energy transfer methodology (i.e. FRET-based substrates) were synthesized at Incenta Limited using published methods (Atherton & Sheppard, Solid Phase Peptide Synthesis, IRL Press, Oxford, U.K, 1989) and employed Abz (2-aminobenzoyl) as the fluorescence donor and 3-nitro-tyrosine [Tyr(NO2)] as the fluorescence quencher (Meldal, M. and Breddam, K., Anal. Biochem, 195, 141-147, 1991). Hydroxyethylpiperazine ethanesulfonate (HEPES), tris-hydroxylmethyl aminomethane (tris) base, bis-tris-propane and all the biological detergents (e.g. CHAPS, zwittergents, etc.) were purchased from CN Biosciences UK, Beeston, Nottinghamshire, U.K. Glycerol was purchased from Amersham Pharmacia Biotech, Little Chalfont, Buckinghamshire, U.K. Stock solutions of substrate or inhibitor were made up to 10 mM in 100% dimethylsulfoxide (DMSO) (Rathburns, Glasgow, U.K.) and diluted as appropriately required. In all cases the DMSO concentration in the assays was maintained at less than 1% (vol./vol.).
(§2) Assay protocols were based on literature precedent (Table 4; Barrett, A. J., Rawlings, N. D. and Woessner, J. F., 1998, Handbook of Proteolytic Enzymes, Academic Press, London and references therein) and modified as required to suit local assay protocols. Enzyme was added as required to initiate the reaction and the activity, as judged by the change in fluorescence upon conversion of substrate to product, was monitored over time. All assays were carried out at 25±1° C.
Wild-type recombinant CPB without the C-terminal extention (i.e. CPB2.8ΔCTE; Sanderson, S. J., et. al., Biochem. J., 347, 383-388, 2000) was obtained from Dr. Jeremy Mottram (Wellcome Centre for Molecular Parasitology, The Anderson College, University of Glasgow, Glasgow, U.K.). Activity assays were carried out in 100 mM sodium acetate; pH 5.5 containing 1 mM EDTA; 200 mM NaCl and 10 mM DTT (Alves, L. C., et. al., Mol. Biochem. Parasitol, 116, 1-9, 2001) using 0.25 nM enzyme. […] The rate of conversion of substrate to product was derived from the slope of the increase in fluorescence monitored continuously over time.
(§3) The apparent inhibition constant (Ki) for each compound was determined on the basis that inhibition was reversible and occurred by a pure-competitive mechanism. The Ki values were calculated, from the dependence of enzyme activity as a function of inhibitor concentration, by direct regression analysis (Prism v 3.02) using Equation 2 (Cornish-Bowden, A., 1995.). [formula]

T1 sequence (P36400 126-343, stated change not applied): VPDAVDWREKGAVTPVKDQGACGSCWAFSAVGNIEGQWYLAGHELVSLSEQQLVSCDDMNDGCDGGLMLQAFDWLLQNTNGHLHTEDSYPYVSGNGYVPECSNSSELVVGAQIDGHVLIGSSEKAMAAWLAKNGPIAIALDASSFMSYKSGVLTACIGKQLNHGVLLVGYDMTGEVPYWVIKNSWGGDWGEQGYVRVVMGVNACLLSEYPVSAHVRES

Structure (SMILES)	Ki
CC(C)C[C@H](NC(=O)c1ccc(N(C)C)cc1)C(=O)N1CC[C@@H]2[C@H]1C(=O)CN2C(=O)[C@H](CC(N)=O)NC(=O)OCc1ccccc1 [Example 148, (3aS,6aR)-((1S)-1-Carbamoylmethyl-2-{4-[(2S)-2-(4-dimethylaminobenzoylamino)-4-methyl-pentanoyl]-3-oxo-hexahydro-pyrrolo[3,2-b]pyrrol-1-yl}-2-oxo-ethyl)-carbamic acid benzyl ester]	< 5 µM
CC(C)CC[C@H](N)C(=O)N1CC(=O)[C@@H]2[C@H]1CCN2C(=O)[C@H](CC(C)C)NC(=O)c1ccc(N(C)C)cc1 [Example 213, (3aR,6aS)-N-{(1S)-1-[4-((2S)-2-Amino-5-methyl-hexanoyl)-6-oxo-hexahydro-pyrrolo[3,2-b]pyrrole-1-carbonyl]-3-methyl-butyl}-4-dimethylamino-benzamide]	< 5 µM
CC(C)C[C@H](NC(=O)c1ccc(-c2cccs2)cc1)C(=O)N1CC[C@@H]2[C@H]1C(=O)CN2S(=O)(=O)c1ccccc1 [Example 120, (3aR,6aS)-N-[(1S)-1-(4-Benzenesulfonyl-6-oxo-hexahydropyrrolo [3,2-b]pyrrole-1-carbonyl)-3-methyl-butyl]-4-thiophen-2-yl-benzamide]	< 5 µM
CC(C)C[C@H](NC(=O)c1ccc(C(C)(C)C)cc1)C(=O)N1CC[C@@H]2[C@H]1C(=O)CN2C(=O)Cc1ccccc1 [Example 3, (3aR,6aS)-4-tert-Butyl-N-[(1S)-3-methyl-1-(6-oxo-4-phenylacetyl-hexahydro-pyrrolo[3,2-b]pyrrole-1-carbonyl)-butyl]-benzamide]	< 5 µM
CCCCCC(=O)N1CC(=O)[C@@H]2[C@H]1CCN2C(=O)[C@H](CC(C)C)NC(=O)c1ccc(N(C)C)cc1 [Example 234, (3aR,6aS)-4-Dimethylamino-N-[(1S)-1-(4-hexanoyl-6-oxo-hexahydro-pyrrolo[3,2-b]pyrrole-1-carbonyl)-3-methyl-butyl]-benzamide]	< 5 µM

Molecular target: Wild-type cruzipain (Trypanosoma cruzi, UniProt P25779)
Assay: Trypanosoma cruzi cruzipain peptidase activity assay (Ki)
Type: biochemical
Conditions: read-out: Ki, inhibitors of cruzain and cruzipains
Description: as §1, §2
Wild-type cruzipain, derived from Trypanosoma cruzi Dm28 epimastigotes, was obtained from Dr. Julio Scharfstein (Instituto de Biofisica Carlos Chagas Filho, Universidade Federal do Rio de Janeiro, Rio de Janeiro, Brazil). Activity assays were carried out in 100 mM sodium phosphate, pH 6.75 containing 1 mM EDTA and 10 mM L-cysteine using 2.5 nM enzyme. […] The rate of conversion of substrate to product was derived from the slope of the increase in fluorescence monitored continuously over time.
as §3

Sequence of Wild-type cruzipain (P25779 whole entry): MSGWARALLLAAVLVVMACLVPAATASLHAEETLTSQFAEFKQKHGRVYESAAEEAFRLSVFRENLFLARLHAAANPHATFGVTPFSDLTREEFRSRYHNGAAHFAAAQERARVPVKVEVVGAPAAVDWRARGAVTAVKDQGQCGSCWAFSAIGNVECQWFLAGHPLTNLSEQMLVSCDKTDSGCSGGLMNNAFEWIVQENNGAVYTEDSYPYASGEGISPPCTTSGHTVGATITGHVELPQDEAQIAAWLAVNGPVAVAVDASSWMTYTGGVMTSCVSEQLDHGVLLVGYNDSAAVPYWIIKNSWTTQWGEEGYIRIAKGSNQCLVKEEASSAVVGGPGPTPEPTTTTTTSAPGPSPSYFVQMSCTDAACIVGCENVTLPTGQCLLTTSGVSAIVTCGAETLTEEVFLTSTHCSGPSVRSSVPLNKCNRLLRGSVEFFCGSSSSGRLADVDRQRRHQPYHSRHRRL

Structure (SMILES)	Ki
CC(=O)N(C)[C@@H](CC(C)C)C(=O)N1CC(=O)[C@@H]2[C@H]1CCN2C(=O)[C@H](CC(C)C)NC(=O)c1ccc(N(C)C)cc1 [Example 221, (3aR,6aS)-N-((1S)-1-{4-[(2S)-2-(Acetyl-methyl-amino)-4-methyl-pentanoyl]-6-oxo-hexahydro-pyrrolo[3,2-b]pyrrole-1-carbonyl}-3-methyl-butyl)-4-dimethylamino-benzamide]	< 5 µM
Cc1ccc(C(=O)N2CC(=O)[C@@H]3[C@H]2CCN3C(=O)[C@H](Cc2ccc(O)cc2)NC(=O)c2cccc(Br)c2)cc1 [Example 328, (3aR,6aS)-3-Bromo-N-{(1S)-1-(4-hydroxy-benzyl)-2-[4-(4-methyl-benzoyl)-6-oxo-hexahydro-pyrrolo[3,2-b]pyrrole-1-yl]-2-oxo-ethyl}-benzamide]	< 5 µM
CC(C)C[C@H](NC(=O)c1ccc(N(C)C)cc1)C(=O)N1CC[C@@H]2[C@H]1C(=O)CN2C(=O)[C@@H](N)CO [Example 206, (3aR,6aS)-N-{(1S)-1-[((2S)-2-Amino-3-hydroxy-propionyl)-6-oxo-hexahydro-pyrrolo[3,2-b]pyrrole-1-carbonyl]-3-methyl-butyl}-4-dimethylamino-benzamide]	< 5 µM
O=C(N[C@@H](Cc1cc(F)cc(F)c1)C(=O)N1CC[C@@H]2[C@H]1C(=O)CN2C(=O)c1ccccc1)c1cccc(Br)c1 [Example 343, (3aR,6aS)-N-[(1S)-2-(4-Benzoyl-6-oxo-hexahydro-pyrrolo[3,2-b]pyrrol-1-yl)-1-(3,5-difluoro-benzyl)-2-oxo-ethyl]-3-bromo-benzamide]	< 5 µM
CC(=O)NCC(=O)N1CC(=O)[C@@H]2[C@H]1CCN2C(=O)[C@H](CC(C)C)NC(=O)c1ccc(N(C)C)cc1 [Example 199, (3aR,6aS)-N-{(1S)-1-[4-(2-Acetylamino-acetyl)-6-oxo-hexahydro-pyrrolo[3,2-b]pyrrole-1-carbonyl]-3-methyl-butyl}-4-dimethylamino-benzamide]	< 5 µM
CC[C@H](N)C(=O)N1CC(=O)[C@@H]2[C@H]1CCN2C(=O)[C@H](CC(C)C)NC(=O)c1ccc(N(C)C)cc1 [Example 203, (3aR,6aS)-N-{(1S)-1-[4-((2S)-2-Amino-butyryl)-6-oxo-hexahydro-pyrrolo[3,2-b]pyrrole-1-carbonyl]-3-methyl-butyl}-4-dimethylamino-benzamide]	< 5 µM
COc1cccc(C(=O)N[C@@H](Cc2ccc(O)cc2)C(=O)N2CC[C@@H]3[C@H]2C(=O)CN3C(=O)c2ccccc2)c1 [Example 338, (3aR,6aS)-N-[(1S)-2-(4-Benzoyl-6-oxo-hexahydro-pyrrolo[3,2-b]pyrrol-1-yl)-1-(4-hydroxy-benzyl)-2-oxo-ethyl]-3-methoxy-benzamide]	< 5 µM
CC(C)C[C@H](NC(=O)c1ccc(N(C)C)cc1)C(=O)N1CC[C@@H]2[C@H]1C(=O)CN2C(=O)c1cccc[n+]1[O-] [Example 80]	< 5 µM
CCC[C@H](NC(=O)c1ccc(N(C)C)cc1)C(=O)N1CC[C@@H]2[C@H]1C(=O)CN2C(=O)c1ccccc1 [Example 196, (3aR,6aS)-N-[(1S)-1-(4-Benzoyl-6-oxo-hexahydro-pyrrolo[3,2-b]pyrrole-1-carbonyl)-butyl]-4-dimethylamino-benzamide]	< 5 µM
O=C(N[C@@H](CSCc1ccccc1)C(=O)N1CC[C@@H]2[C@H]1C(=O)CN2C(=O)c1ccccc1)c1cccc(Oc2ccccc2)c1 [Example 260, (3aR,6aS)-N-[(1R)-2-(4-Benzoyl-6-oxo-hexahydro-pyrrolo[3,2-b]pyrrol-1-yl)-1-benzylsulfanylmethyl-2-oxo-ethyl]-3-phenoxy-benzamide]	< 5 µM
CC(C)C[C@H](NC(=O)c1ccc(N(C)C)cc1)C(=O)N1CC[C@@H]2[C@H]1C(=O)CN2C(=O)[C@@H](N)C(C)C [Example 205, (3aR,6aS)-N-{(1S)-1-[4-((2S)-2-Amino-3-methyl-butyryl)-6-oxo-hexahydro-pyrrolo[3,2-b]pyrrole-1-carbonyl]-3-methyl-butyl}-4-dimethylamino-benzamide]	< 5 µM
CC(C)C[C@H](NC(=O)c1ccc(N(C)C)cc1)C(=O)N1CC[C@@H]2[C@H]1C(=O)CN2C(=O)[C@@H]1C[C@@H](O)CN1 [Example 218, (3aR,6aS)-4-Dimethylamino-N-{(1S)-1-[4-((2S,4R)-4-hydroxy-pyrrolidine-2-carbonyl)-6-oxo-hexahydro-pyrrolo[3,2-b]pyrrole-1-carbonyl]-3-methyl-butyl}-benzamide]	< 5 µM
Cc1ccc(C(=O)N[C@@H](Cc2ccc(O)cc2)C(=O)N2CC[C@@H]3[C@H]2C(=O)CN3C(=O)c2ccccc2)cc1Br [Example 337, (3aR,6aS)-N-[(1S)-2-(4-Benzoyl-6-oxo-hexahydro-pyrrolo[3,2-b]pyrrol-1-yl)-1-(4-hydroxy-benzyl)-2-oxo-ethyl)-3-bromo-4-methyl-benzamide]	< 5 µM
CCn1nc(C)cc1C(=O)N[C@@H](Cc1ccc(O)cc1)C(=O)N1CC[C@@H]2[C@H]1C(=O)CN2C(=O)c1ccccc1S(C)(=O)=O [Example 313, (3aR,6aS)-2-Ethyl-5-methyl-2H-pyrazole-3-carboxylic acid {(1S)-1-(4-hydroxy-benzyl)-2-[4-(2-methanesulfonylbenzoyl)-6-oxo-hexahydropyrrolo[3,2-b]pyrrole-1-yl]-2-oxo-ethyl}-amide]	< 5 µM
